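In this assay, cells in 96-well plates receive the compound at five concentrations for 48 hours. Endpoints are linearly interpolated between the surrounding concentrations. GI50 is the concentration that inhibits growth by half. TGI: concentration producing complete growth inhibition.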

One assay relates to SF-268 CNS. Briefly: inhibition of tumour cell growth, NCI panel, 48 h.
On to `Fc1ccc(C2SCc3nc4ccccc4n32)c(F)c1` (stereo unspecified), for which the TGI is more than 100 µM.
Regarding `Fc1ccc(/C=N/n2c(-c3ccc(F)c(Cl)c3)nn(CNc3ccccc3C(F)(F)F)c2=S)cc1`, the GI50 was more than 100 µM and the TGI is more than 100 µM.
In the case of `CN[C@@H](C)C(=O)N[C@H](C(=O)N1CCC[C@H]1C(=O)Nc1sc(-c2ncco2)nc1-c1ccccc1)C1CCCCC1`, the GI50 was 99.7 µM and the TGI is more than 100 µM.
Taken in the same sequence, the figures for `CC(=O)OC12C=C(C)C(C(C)C1)C1C(=O)N(CCN3CCOCC3)C(=O)C12` (stereo unspecified) were more than 100 µM and more than 100 µM.
Take `CC1=C2[C@@H](CC1)[C@]1(C)O[C@@](c3ccccc3)(C[C@H]1OC(=O)CO)[C@H]2OC(=O)/C=C/c1ccccc1`: the GI50 is 2.78 µM and the TGI was found to be 32.5 µM.
Take `NC(=O)c1csc(C2OC(CO)C(O)C2O)n1` (stereo unspecified): the GI50 was 96.1 µM and the TGI was 9040 µM.
On the same counts, the results for `CCCN(CCS(C)(=O)=O)Cc1ccc(-c2ccc3ncnc(Nc4ccc(OCc5cccc(F)c5)c(Cl)c4)c3c2)o1` are more than 25 µM and more than 25 µM.
Taken in the same sequence, the figures for `CC(C)C[C@H](NC(=O)CNC(=O)c1cc(Cl)ccc1Cl)B1OC(=O)CC(CC(=O)O)(C(=O)O)O1` (stereo partly specified) were 0.0723 µM and 2.43 µM.
Taken in the same sequence, the figures for `CCCCCCCCCCCCCCCCCC[n+]1ccc2c(C)c3c(c(C)c2c1)c1cc(O)ccc1n3CC` were 1.95 µM and 5.11 µM.
Consider `CCc1ccc2c(c1)N(CCO)C1=C(C(=O)OC1)C2c1cccc(Br)c1` (stereo unspecified), for which the GI50 is 0.722 µM and the TGI came out at 15.9 µM.
Take `CN(C)CCCn1c(=O)c2ccccc2c2ccccc21`: the GI50 is 15.6 µM and the TGI was determined as 41.4 µM.
The molecule `O=c1[nH]c(=O)n(C2CC(O)C(COP(=O)(OCc3ccc([N+](=O)[O-])o3)N(CCCCCl)CC(O)CO)O2)cc1F` (stereo unspecified) returned a TGI of more than 100 µM.
Consider `O=C1OC(=O)C(=C\c2ccc3c(c2)OCO3)/C1=C/c1ccc2c(c1)OCO2`, for which the TGI is more than 100 µM.
Regarding `CC(C)NCCCn1c(Sc2cc3c(cc2I)OCO3)nc2c(N)ncnc21`, the GI50 was 2.1 µM and the TGI is more than 100 µM.
Turning to `CC1(O)C=CC(=O)C=C1`, the TGI turned out to be 29.2 µM.
On to `CN1C(=O)N(C)C2C1NN=c1s/c(=C\c3ccc(C(F)(F)F)cc3)c(=O)n12` (stereo unspecified), for which the GI50 is 10.4 µM and the TGI is more than 100 µM.

A further assay deals with A549 NSCLC. Briefly: inhibition of tumour cell growth, NCI panel, 48 h.
As to `Fc1ccc(C2SCc3nc4ccccc4n32)c(F)c1` (stereo unspecified), the TGI is more than 100 µM.
`Fc1ccc(/C=N/n2c(-c3ccc(F)c(Cl)c3)nn(CNc3ccccc3C(F)(F)F)c2=S)cc1`: the GI50 was 52.8 µM and the TGI was more than 100 µM.
As to `CN[C@@H](C)C(=O)N[C@H](C(=O)N1CCC[C@H]1C(=O)Nc1sc(-c2ncco2)nc1-c1ccccc1)C1CCCCC1`, the GI50 is 80.5 µM and the TGI is more than 100 µM.
On the same counts, the results for `CC(=O)OC12C=C(C)C(C(C)C1)C1C(=O)N(CCN3CCOCC3)C(=O)C12` (stereo unspecified) are more than 100 µM and more than 100 µM.
Taken in the same sequence, the figures for `CC1=C2[C@@H](CC1)[C@]1(C)O[C@@](c3ccccc3)(C[C@H]1OC(=O)CO)[C@H]2OC(=O)/C=C/c1ccccc1` were 14.5 µM and 38 µM.
On the same counts, the results for `NC(=O)c1csc(C2OC(CO)C(O)C2O)n1` (stereo unspecified) are 130 µM and more than 10000 µM.
`CCCN(CCS(C)(=O)=O)Cc1ccc(-c2ccc3ncnc(Nc4ccc(OCc5cccc(F)c5)c(Cl)c4)c3c2)o1`: the GI50 was more than 25 µM and the TGI is more than 25 µM.
Turning to `CC(C)C[C@H](NC(=O)CNC(=O)c1cc(Cl)ccc1Cl)B1OC(=O)CC(CC(=O)O)(C(=O)O)O1` (stereo partly specified), the GI50 was 0.11 µM and the TGI was found to be 20.6 µM.
Taken in the same sequence, the figures for `CCCCCCCCCCCCCCCCCC[n+]1ccc2c(C)c3c(c(C)c2c1)c1cc(O)ccc1n3CC` were 1.28 µM and 5.47 µM.
Taken in the same sequence, the figures for `CCc1ccc2c(c1)N(CCO)C1=C(C(=O)OC1)C2c1cccc(Br)c1` (stereo unspecified) were 0.655 µM and 14.8 µM.
On the same counts, the results for `CN(C)CCCn1c(=O)c2ccccc2c2ccccc21` are 6.63 µM and 49.5 µM.
On to `O=c1[nH]c(=O)n(C2CC(O)C(COP(=O)(OCc3ccc([N+](=O)[O-])o3)N(CCCCCl)CC(O)CO)O2)cc1F` (stereo unspecified), for which the GI50 is less than 0.01 µM and the TGI is more than 100 µM.
In turn, `O=C1OC(=O)C(=C\c2ccc3c(c2)OCO3)/C1=C/c1ccc2c(c1)OCO2` yielded a TGI of more than 100 µM.
In the case of `CC(C)NCCCn1c(Sc2cc3c(cc2I)OCO3)nc2c(N)ncnc21`, the GI50 is 0.0872 µM and the TGI was more than 86.6 µM.
Regarding `CC1(O)C=CC(=O)C=C1`, the TGI is more than 100 µM.
Regarding `CN1C(=O)N(C)C2C1NN=c1s/c(=C\c3ccc(C(F)(F)F)cc3)c(=O)n12` (stereo unspecified), the GI50 was 1.45 µM and the TGI was more than 100 µM.

The subject of another assay is OVCAR-4 ovarian. Briefly: inhibition of tumour cell growth, NCI panel, 48 h.
`Fc1ccc(C2SCc3nc4ccccc4n32)c(F)c1` (stereo unspecified): the TGI is more than 100 µM.
As to `Fc1ccc(/C=N/n2c(-c3ccc(F)c(Cl)c3)nn(CNc3ccccc3C(F)(F)F)c2=S)cc1`, the GI50 was 57.4 µM and the TGI was more than 100 µM.
On the same counts, the results for `CN[C@@H](C)C(=O)N[C@H](C(=O)N1CCC[C@H]1C(=O)Nc1sc(-c2ncco2)nc1-c1ccccc1)C1CCCCC1` are 3.26 µM and more than 100 µM.
As for `CC(=O)OC12C=C(C)C(C(C)C1)C1C(=O)N(CCN3CCOCC3)C(=O)C12` (stereo unspecified), the GI50 is more than 100 µM and the TGI was more than 100 µM.
Regarding `CC1=C2[C@@H](CC1)[C@]1(C)O[C@@](c3ccccc3)(C[C@H]1OC(=O)CO)[C@H]2OC(=O)/C=C/c1ccccc1`, the GI50 was 15.2 µM and the TGI was found to be 43 µM.
In turn, `NC(=O)c1csc(C2OC(CO)C(O)C2O)n1` (stereo unspecified) showed a TGI of 1160 µM.
With `CCCN(CCS(C)(=O)=O)Cc1ccc(-c2ccc3ncnc(Nc4ccc(OCc5cccc(F)c5)c(Cl)c4)c3c2)o1`, the GI50 was 21.3 µM and the TGI is more than 25 µM.
Taken in the same sequence, the figures for `CC(C)C[C@H](NC(=O)CNC(=O)c1cc(Cl)ccc1Cl)B1OC(=O)CC(CC(=O)O)(C(=O)O)O1` (stereo partly specified) were 0.0733 µM and 19 µM.

The values are drawn from PubChem BioAssay (NCI).
